# Data from patent US8821922B2, “Compositions and methods for polymer-caged liposomes” (Northwestern University, priority 2007, dated 2014).
# Tested on: KB epidermoid carcinoma cells
# Assay: Cytotoxicity study of doxorubicin-loaded liposomes (Guava ViaCount Assay)
# Format: cell-based
# Conditions: Homo sapiens, 2 h exposure, further 48 h in fresh medium, viable cells counted by Guava ViaCount
# Procedure: Cytotoxictity assay were conducted using the Guava ViaCount Assay system.
# Initially, acetylene-functionalized PCLs were prepared using propargyl-modified diamine cross-linkers. Azido-poly(ethylene glycol)-modified folates were then conjugated to the acetylene groups on the surface of PCLs catalyzed by Cu(I) (FIG. 9) to present folate groups on the PCL surface. The folate conjugation to doxorubicin-loaded PCLs indeed increased the drug efficacy against cancer cells as shown through an in vitro model study against KB epidermoid carcinoma cells.
# KB cells were continuously cultured in folic acid-free medium supplemented with 10% heat-inactivated fetal bovine serum at 37° C. in a humidified atmosphere containing 5% CO2. The cells were seeded into several 48-well plates at 100,000 cells per well. The plates were then returned to the incubator and the cells were allowed to grow to confluence for 24 h. The media in the wells were replaced with the pre-prepared growth medium-drug-loaded PCL mixture (200 μL of solution at the appropriate Doxorubicin concentrations). The PCL-treated cell cultures were then further incubated for 2 h in a humidified atmosphere containing 5% CO2 at 37° C., after which the growth medium—drug-loaded PCL mixture was removed by aspiration. […] The viable cells were then counted by Guava ViaCount Assay.
structure (smiles),measurement,value
"COc1cccc2c1C(=O)c1c(O)c3c(c(O)c1C2=O)C[C@@](O)(C(=O)CO)C[C@@H]3O[C@H]1C[C@H](N)[C@H](O)[C@H](C)O1 [free DXR, doxorubicin]",IC50,100 nM
